According to patent EP3587389A1 (INSTYTUT FARMACEUTYCZNY, priority 2018, dated 2020):

Experiments:
[1] = Oxidation inhibition of the o/w emulsion (lipid peroxidation, TBARS); conditions: for o/w emulsion (Inhibition of the oxidation (%)) / o/w emulsion (Inhibition of the oxidation), footnoted symbol: determined at 100 µM, flaxseed oil emulsion, oxidation induced with Mohr's salt, TBARS; for protection against the induced oxidation (in words): o/w emulsion model
Procedure: The emulsion was prepared according to the method described in Zarnowski R. et al., The oil of Adenanthera pavonina L. seeds and its emulsions. Z Naturforsch C. 2004;59(5-6):321-326; Jaromin A. et al., Emulsions of oil from Adenanthera pavonina L. seeds and their protective effect Cell Mol Biol Lett 2006; 11(3): 438-448). Briefly, 15 mg of sorbitan sesquioleate was added to 50 mg of flaxseed oil and vigorously mixed for 20 min. Then, 2 ml of an aqueous phase consisting of 10 mM Tris-HCl buffer, pH 7.4, was added. The sample was further vortexed for 15 min. and sonicated (Sonics & Materials Inc., Newton, CT, USA) for 10 min. in a coldwater bath. Then, 20 µl of the 1:1 (v/v) buffer diluted emulsion, methanolic solution of each compound (final concentration 100 µM) and 10 mM Tris-HCl buffer, pH 7.4, were mixed and incubated at room temperature for 10 min. To induce oxidation, 100 µl of freshly prepared aqueous solution of ammonium iron(II) sulfate hexahydrate (Mohr's salt) (5 mM) was added (total volume of the sample was 1 ml) and the samples were incubated at room temperature for 15 min. Flaxseed oil emulsion without any compound addition was included as control. After the oxidation step, determination of the thiobarbituric acid reacting substances (TBARS) was performed (Buege J.A., Aust S.D., Microsomal lipid peroxidation. Methods Enzymol. 1978;52:302-310). 2 ml of the thiobarbituric acid (TBA) reagent (15% trichloroacetic acid, 0.25 N HCl and 0.5% TBA) was added to each sample, mixed and heated at 100°C for 30 min. After centrifugation at 13 000 rpm for 10 min, the absorbance of the supernatants was measured at 535 nm. The obtained values were used to calculate the % of the oxidation inhibition according to the following equation: Inhibition of the oxidation (%) = [1−(absorbance of the sample/absorbance of control)] × 100 [formula]

[2] = DPPH free radical scavenging assay; conditions: for IC50: 30 min at room temperature, absorbance at 517 nm; for scavenging abilities (in words): DPPH assay
Procedure: J Nat Prod. 2010 Feb 26; 73(2): 252-4. doi: 10.1021/np900519d.) with a modification. Briefly, different concentrations of the compounds (100 µl) were mixed with 900 µl of the 0.04 mg/ml methanolic solution of DPPH. The mixture was kept at room temperature for 30 min, and then the absorbance at 517 nm was measured. The half maximal inhibitory concentration (IC50) was used as an indicating measure of the scavenging activity.

| SMILES | o/w emulsion (Inhibition of the oxidation (%)) [1] | IC50 [2] | o/w emulsion (Inhibition of the oxidation), footnoted symbol [1] | scavenging abilities (in words) [2] | protection against the induced oxidation (in words) [1] |
| --- | --- | --- | --- | --- | --- |
| O=C(O)/C=C/c1ccc(O)c(O)c1 [CA, Caffeic acid] | 26.1 ± 2.9% | 32.2 µM | – | – | – |
| CC(=O)/C=C/c1ccccc1O [Compound 6, 4-(2'-hydroxyphenyl)-3(E)-buten-2-one] | – | > 5000 µM | n.a.^b (no protection detected) | no scavenging abilities | – |
| COC(=O)/C=C/c1ccc(O)cc1 [Compound 8, 3-(4'-Hydroxyphenyl)-(E)-propenoic acid methyl ester] | 22.7 ± 6.4% | > 5000 µM | – | no scavenging abilities | – |
| COC(=O)/C=C/c1ccccc1O [Compound 9, 3-(2'-Hydroxyphenyl)-(E)-propenoic acid methyl ester] | 2.6 ± 1.5% | > 5000 µM | – | no scavenging abilities | – |
| COC(=O)/C=C/c1cccc(O)c1 [Compound 10, 3-(3'-Hydroxyphenyl)-(E)-propenoic acid methyl ester] | 18.4 ± 2.2% | > 5000 µM | – | no scavenging abilities | – |
| COC(=O)/C=C/c1ccc(O)cc1O [Compound 11, 3-(2',4'-dihydroxyphenyl)-(E)-propenoic acid methyl ester] | 33.7 ± 6.5% | 1020 µM | – | – | – |
| COC(=O)/C=C/c1ccc(O)c(O)c1O [Compound 12, 3-(2',3',4'-trihydroxyphenyl)-(E)-propenoic acid methyl ester] | 55.5 ± 2% | 18.6 µM | – | – | highest protection against the induced oxidation |
| COC(=O)/C=C/c1cc(O)c(O)cc1O [Compound 13, 3-(2',4',5'-trihydroxyphenyl)-(E)-propenoic acid methyl ester] | 38.6 ± 2.3% | 53.3 µM | – | – | highest protection against the induced oxidation |
| COC(=O)/C=C/c1ccc(O)c(OC)c1 [Compound 14, 3-(4'-hydroxy-3-metoxyphenyl)-(E)-propenoic acid methyl ester] | 14.8 ± 2% | 58.9 µM | – | – | – |
| CC(=O)/C=C/c1cccc(O)c1 [Compound 15, 4-(3'-hydroxyphenyl)-3(E)-buten-2-one] | – | – | n.a.^b (no protection detected) | no scavenging abilities | – |
| CC(=O)/C=C/c1ccc(O)cc1 [Compound 16, 4-(4'-hydroxyphenyl)-3(E)-buten-2-one] | 6.8 ± 4.4% | > 5000 µM | – | no scavenging abilities | – |
| CC(=O)/C=C/c1ccc(O)cc1O [Compound 17, 4-(2',4'-dihydroxyphenyl)-3(E)-buten-2-one] | 4.6 ± 1.3% | 688 µM | – | – | – |
| CC(=O)/C=C/c1ccc(O)c(O)c1O [Compound 18, 4-(2',3',4'-trihydroxyphenyl)-3(E)-buten-2-one] | 28.6 ± 4% | 16.8 µM | – | – | highest protection against the induced oxidation |
| COc1cc(/C=C/C(C)=O)ccc1O [Compound 20, 4-(3'-methoxy-4'-hydroxyphenyl)-3(E)-buten-2-one] | 7.9 ± 2.1% | 61.8 µM | – | – | – |
